This passage reports TGI and GI50 results from PubChem BioAssay (NCI).

Structures are written as SMILES. “And” between values parts separate entries of the source, which are not always exact repeats. Identical values can stand only once.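 Following 48 hours of exposure in 96-well plates, responses at five concentrations were used to interpolate endpoints linearly. Here, GI50 denotes the concentration required for 50% inhibition of growth. TGI marks complete inhibition of growth.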 Bounds are passed on as bounds.

Holding throughout (experiment): growth of human tumour cells (NCI), 48 h
For test [1], the system named is ACHN renal.
For test [2], the system named is EKVX NSCLC.
Test [3] relates to HCT-116 colon.
Test [4] deals with HS 578T breast.
The test system of test [5] is IGROV1 ovarian.
Test [6] concerns K-562 leukemia.
Test [7] concerns M14 melanoma.
In test [8] the test system is SK-MEL-5 melanoma.
The test system of test [9] is SR leukemia.
Test [10] deals with SW-620 colon.

In the case of `CCCN(CCC)C1CCc2c(ccc3cc[nH]c23)C1` (stereo not drawn), the TGI in test [1], in test [2], in test [3], in [4], in [5] and in test [6] was > 100 µM each time. The TGI was 32.4 µM in [7], 41.4 µM in test [8], 73.3 µM in test [9] and > 100 µM in test [10].

On to `CC(=O)OC(C)c1cc2c(s1)C(=O)c1c(C(C)OC(C)=O)csc1C2=O` (stereo not drawn), for which the TGI stood at 2.82 µM in test [1]; 3.22 µM in [2]; 10.2 µM in [3]; 7.59 µM in test [4]; 3.28 µM in test [5]; 3.26 µM in [6]. In addition, the TGI was 1.79 µM in test [7], 1.83 µM in test [8], > 100 µM in test [9] and 2.37 µM in test [10]. Besides, the GI50 in test [4] was 2.08 µM; in test [7] it was 0.516 µM; in test [8], 0.631 µM.

With `COC(=O)c1cccc(OC)c1C#Cc1c(OC)cccc1OC`, the TGI in test [1], in test [2], in test [3], in test [4], in test [5] and in [6] was > 100 µM throughout. Also, the TGI in test [7], in test [8], in [9] and in [10] was > 100 µM in each case.

In the case of `N=c1oc2ccccc2cc1-c1nc2ccccc2c(=O)[nH]1`, the TGI was > 100 µM in test [1]; > 100 µM in [2]; > 100 µM in test [3]; 84.3 µM in [4]; > 100 µM in test [5]; > 100 µM in [6]. The TGI in test [7], in [8], in test [9] and in [10] was > 100 µM in each case.

Turning to `COC1(c2cccs2)c2ccccc2C(OC)(c2cccs2)c2ccccc21` (stereo not drawn), the TGI is > 100 µM in test [1]; > 100 µM in test [2]; > 100 µM in test [3]; 19.8 µM in test [4]; > 100 µM in [5]; > 100 µM in test [6]. In addition, the TGI in [7], in test [8], in [9] and in test [10] was > 100 µM each time.

As to `COC12C=CC(C=C1C#N)CC2` (stereo not drawn) (tested in a mixture with another compound), the TGI in test [1], in [2], in test [3], in test [4], in test [5] and in [6] was > 100 µM in each case. Further, the TGI in test [7], in test [8], in test [9] and in test [10] was > 100 µM in each case.

Turning to `CC(=O)N(C(C)=O)n1c(Cc2ccc(C)cc2)nn(C(C)=O)c1=O`, the TGI in test [1], in test [2], in [3], in test [4], in [5] and in test [6] was > 100 µM each time. Besides, the TGI in test [7], in test [8], in [9] and in [10] was > 100 µM throughout.

As for `Cc1cc(N(CCC#N)CCC#N)ccc1/C=C1\SC(=S)NC1=O`, the TGI in test [1] is > 100 µM; in [2], > 100 µM; in [3], > 100 µM; in [4], 85 µM; in [5], > 100 µM; in [6], > 100 µM. Besides, the TGI in test [7], in [8], in [9] and in [10] was > 100 µM throughout.

In the case of `c1csc(-c2ccsc2-c2ccsc2)c1`, the TGI in test [1], in [2], in [3], in test [4], in test [5] and in test [6] was > 100 µM each time. Moreover, the TGI in [7], in [8], in [9] and in [10] was > 100 µM throughout.

With `CN(C)CC1CCC/C(=C\c2ccc(OC(=O)/C=C/c3ccc(Cl)c(Cl)c3)cc2)C1=O` (stereo not drawn), the TGI in test [1] was 3.46 µM; in test [2] it was 23.5 µM; in [3], 14.5 µM; in test [4] it was > 85.3 µM; in test [5] it was 3.15 µM; in test [6], > 100 µM. Also, the TGI in test [7] is 24.9 µM; in [8], 12.2 µM; in [9] it was 3.54 µM; in test [10], 7.86 µM.

For `COC(=O)NC(Cc1ccccc1)NC(C)=O` (stereo not drawn), the TGI in test [1], in test [2], in test [3], in test [4], in test [5] and in test [6] was > 100 µM each time. For the same compound, the TGI in [7], in test [8], in [9] and in [10] was > 100 µM throughout.

Turning to `O=C1/C(=C/c2ccccc2)NC(=S)N1CN1CCCCC1`, the TGI in [1], in test [2], in test [3], in test [4], in test [5] and in [6] was > 100 µM in each case. Besides, the TGI in test [7], in test [8], in test [9] and in [10] was > 100 µM throughout.

As to `Cc1cc(O)cc(O)c1C(=O)O[C@]1(C)C(=O)C=C2C=C(/C=C/C(=O)O)OC=C2C1=O`, the TGI in test [1], in [2], in test [3], in test [4], in test [5] and in [6] was > 100 µM each time. Also, the TGI was > 100 µM in [7], > 100 µM in test [8], 99 µM in test [9] and > 100 µM in test [10].

Take `O=[N+]([O-])c1cccc(Cl)c1Oc1ccc(S(=O)(=O)/N=C(\NO)Nc2ccc(Cl)cc2)cc1`: the TGI was determined as 27.5 µM in test [1]; 26.2 µM in test [2]; 25 µM in test [3]; 27.6 µM in test [4]; 35.6 µM in test [5]; 33.3 µM in test [6]. Further, the TGI in test [7] amounted to 27.4 µM; in test [8], 24.7 µM; in test [9], 21.1 µM; in test [10] it was 30.3 µM.

Turning to `O=C(C(Cl)=C(N1CCCCC1)N1CCCCC1)C(Cl)Cl`, the TGI in [1], in test [2], in test [3], in test [4], in test [5] and in test [6] was > 100 µM throughout. Besides, the TGI in [7], in test [8], in test [9] and in test [10] was > 100 µM each time.

As for `CCN(CC)CCOC(=O)Cc1cccc2c(=O)cc(-c3ccccc3)oc12`, the TGI is 62.5 µM in test [1]; 62.5 µM in [2]; 62.5 µM and > 153 µM in test [3]; 62.5 µM in test [4]; 62.5 µM and > 216 µM in [5]; 62.5 µM in [7]. Also, the TGI in [8] was 62.5 µM and > 186 µM; in test [9], 37.9 µM; in test [10], 62.5 µM and > 251 µM. For the same compound, the GI50 was 25.2 µM in test [2]; 85.1 µM in [3]; 82.9 µM in test [5]; 406 µM in [6]; 81.5 µM in test [8]; 123 µM in test [10].

Take `O=C1CS[C@@](CC(c2ccc(Cl)cc2)c2ccc(Cl)cc2)(c2ccc(Cl)cc2)N1`: the TGI in test [1] is 89.4 µM; in test [2], > 100 µM; in test [3], > 100 µM; in [4] it was > 100 µM; in test [5], > 100 µM; in [6], > 100 µM. Moreover, the TGI in test [7] is > 100 µM; in [8], 34.6 µM; in [9], 26.3 µM; in [10], > 100 µM.

Regarding `CCCc1nnc2sc(COc3cc(Cl)c(OCc4nn5c(CCC)nnc5s4)cc3Cl)nn12`, the TGI is > 100 µM in test [1]; 82.2 µM in test [2]; > 100 µM in [3]; > 100 µM in test [4]; > 100 µM in [5]; > 100 µM in test [6]. Moreover, the TGI in [7] is > 100 µM; in test [8], 32.1 µM; in test [9], 1.77 µM; in test [10] it was > 100 µM.

For `NC(=Nc1ccccc1)c1ccccc1N`, the TGI in test [1], in test [2], in test [3], in test [4], in test [5] and in [6] was > 100 µM throughout. Besides, the TGI in [7], in test [8], in [9] and in test [10] was > 100 µM throughout.
